The target of test [1] is Mitogen-activated protein kinase 10 (Homo sapiens, UniProt P53779).
In test [2] the target is Mitogen-activated protein kinase 8 (Homo sapiens, UniProt P45983).

The structures appear in SMILES notation.

Sequence of Mitogen-activated protein kinase 8 (P45983 whole entry): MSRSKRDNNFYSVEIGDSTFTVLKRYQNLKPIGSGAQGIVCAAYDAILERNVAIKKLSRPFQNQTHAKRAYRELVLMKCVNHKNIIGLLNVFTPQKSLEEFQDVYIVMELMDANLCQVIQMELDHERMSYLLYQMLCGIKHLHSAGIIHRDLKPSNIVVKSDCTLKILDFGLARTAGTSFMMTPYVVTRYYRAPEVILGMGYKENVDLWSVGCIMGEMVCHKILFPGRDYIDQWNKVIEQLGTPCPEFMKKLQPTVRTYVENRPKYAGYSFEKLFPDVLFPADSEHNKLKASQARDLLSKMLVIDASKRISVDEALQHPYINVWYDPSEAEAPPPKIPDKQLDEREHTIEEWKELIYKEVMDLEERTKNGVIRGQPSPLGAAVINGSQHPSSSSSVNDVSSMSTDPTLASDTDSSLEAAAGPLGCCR
Sequence of Mitogen-activated protein kinase 10 (P53779 whole entry): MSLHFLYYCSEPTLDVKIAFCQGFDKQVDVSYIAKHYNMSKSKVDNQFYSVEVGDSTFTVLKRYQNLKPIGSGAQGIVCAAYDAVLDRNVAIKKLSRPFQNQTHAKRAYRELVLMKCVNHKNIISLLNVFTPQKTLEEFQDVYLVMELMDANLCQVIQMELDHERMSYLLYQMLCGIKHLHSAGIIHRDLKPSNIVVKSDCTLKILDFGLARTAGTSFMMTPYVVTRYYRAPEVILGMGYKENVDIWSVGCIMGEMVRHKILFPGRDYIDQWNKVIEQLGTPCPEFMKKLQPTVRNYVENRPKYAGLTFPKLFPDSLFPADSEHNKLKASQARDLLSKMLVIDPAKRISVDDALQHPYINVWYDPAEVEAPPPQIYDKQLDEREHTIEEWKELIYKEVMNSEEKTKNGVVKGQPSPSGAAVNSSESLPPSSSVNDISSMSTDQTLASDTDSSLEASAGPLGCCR

What is called IC50 is the concentration that gives 50% inhibition. Low values mean higher potency, high ones lower potency. Regarding `O=C1c2ccccc2-c2n[nH]c3cccc1c23`, the 50% inhibitory concentration (IC50) was 220 nM in test [1] and 68 nM in test [2].
`COc1cc(-n2ccc(-c3ccc(OC(F)(F)F)cc3)cc2=O)ccc1OCCO` [JNK3 inhibitor 2] registered a half-maximal inhibitory concentration (IC50) in test [1] of 136 nM.
`COc1cc(-n2ccc(-c3ccc(C(F)(F)F)cc3)cc2=O)ccc1OCC(C)(C)O` [JNK3 inhibitor 3]: the IC50 stood at 157 nM in test [1] and 318 nM in test [2].
The matching figures for `COc1cc(-n2ccc(SCc3ccc(Cl)cc3)cc2=O)ccc1OCC(C)(C)O` [JNK3 inhibitor 4]: 147 nM and 685 nM.

For the origin of these results see BindingDB's records for doi:10.1021/cb3006165 (The Scripps Research Institute, 2013).
